Results published in patent US7842279B2, “F-18 peptides for pre targeted positron emission tomography imaging” (Immunomedics, Inc., priority 2005, dated 2010).

System: LS174T human colon adenocarcinoma
Test: PET imaging of human colon cancer tissue in nude mice
Type: in vivo
Details: female athymic nu/nu mice, s.c. LS174T xenograft, 20 μCi i.v.
Method: A humanized MN-14 IgG antibody is prepared as described in U.S. Pat. No. 6,676,924. ^18F-labeled bisulfite addition complex is prepared as described in Example 8 and is linked to the humanized MN-14 IgG by reductive amination with sodium cyanoborohydride using standard techniques (see, e.g., Gray, 1978, Meth. Enzymol. 50:155-160.). Alternatively, an antibody or antibody fragment is directly labeled with [^18F]Fluorobenzaldehyde in the presence of hydroxylamine, thiosemicarbazide or hydrazine. Gel-permeation column chromatography is used to separated the 4-[^18F]Fluorobenzaldehyde/hMN-14 immunoconjugate from unconjugated 4-[^18F]Fluorobenzaldehyde bisulfite addition complex. The 4-[^18F]Fluorobenzaldehyde/hMN-14 immunoconjugate is used to localize human colon cancer tissue in nude mice. At 4-5 weeks female athymic mice (nu/nu, Harlan, Indianapolis, Ind.) are injected s.c. with 0.2 ml of a 10% suspension of LS174T human colon adenocarcinoma prepared from a xenograft serially propagated in an athymic mouse (Sharkey et al., Cancer Res., 50: 828-34 (1990)). After waiting 2 weeks for tumor development, the mice are injected i.v. with 20 μCi of 4-[^18F]Fluorobenzaldehyde/hMN-14 immunoconjugate. Tumor tissue is imaged by PET imaging, using standard ^18F detection methods.

Substance: 4-[^18F]Fluorobenzaldehyde/hMN-14 immunoconjugate
- tumor detection by PET imaging (F-18 distribution): detected as hot spots of F-18 distribution against a low-level background of F-18
